The target in assay [1] is PIKfyve (PIKFYVE-NanoLuc fusion in HEK293 cells) (Homo sapiens (Human), UniProt Q9Y2I7). Briefly: NanoBRET TE Intracellular Kinase Assay, K-8 (Promega) cell-based assay. As to conditions: 2 hours, read-out: hPIKfyve BRET IC50. How it is done: NanoBRET™ TE Intracellular Kinase Assay, K-8 (Promega) Cell-Based Assay. Intracellular inhibition of PIKfyve was assayed using Promega's NanoBRET™ TE Intracellular Kinase Assay, K-8 according to manufacturer's instructions. A dilution series of test compounds was added for 2 hours to HEK293 cells transfected for a minimum of 20 hours with PIKFYVE-NanoLuc® Fusion Vector (Promega) containing a full-length PIKfyve according to manufacturer's specifications in a 96-well plate. Kinase activity was detected by addition of a NanoBRET™ tracer reagent, which was a proprietary PIKfyve inhibitor appended to a fluorescent probe (BRET, bioluminescence resonance energy transfer). Test compounds were tested at concentrations of 10, 3, 1, 0.3, 0.1, 0.03, 0.01, 0.003 μM. BRET signals were measured by a GloMax®Discover Multimode Microplate Reader (Promega) using 0.3 sec/well integration time, 450BP donor filter and 600LP acceptor filters. Active test compounds that bound PIKfyve and displaced the tracer reduced BRET signal. IC50 values were then calculated by fitting the data to the normalized BRET ratio.
PIKfyve (PIKFYVE-NanoLuc fusion in HEK293 cells), sequence (Q9Y2I7 whole entry, the tested form may be a part): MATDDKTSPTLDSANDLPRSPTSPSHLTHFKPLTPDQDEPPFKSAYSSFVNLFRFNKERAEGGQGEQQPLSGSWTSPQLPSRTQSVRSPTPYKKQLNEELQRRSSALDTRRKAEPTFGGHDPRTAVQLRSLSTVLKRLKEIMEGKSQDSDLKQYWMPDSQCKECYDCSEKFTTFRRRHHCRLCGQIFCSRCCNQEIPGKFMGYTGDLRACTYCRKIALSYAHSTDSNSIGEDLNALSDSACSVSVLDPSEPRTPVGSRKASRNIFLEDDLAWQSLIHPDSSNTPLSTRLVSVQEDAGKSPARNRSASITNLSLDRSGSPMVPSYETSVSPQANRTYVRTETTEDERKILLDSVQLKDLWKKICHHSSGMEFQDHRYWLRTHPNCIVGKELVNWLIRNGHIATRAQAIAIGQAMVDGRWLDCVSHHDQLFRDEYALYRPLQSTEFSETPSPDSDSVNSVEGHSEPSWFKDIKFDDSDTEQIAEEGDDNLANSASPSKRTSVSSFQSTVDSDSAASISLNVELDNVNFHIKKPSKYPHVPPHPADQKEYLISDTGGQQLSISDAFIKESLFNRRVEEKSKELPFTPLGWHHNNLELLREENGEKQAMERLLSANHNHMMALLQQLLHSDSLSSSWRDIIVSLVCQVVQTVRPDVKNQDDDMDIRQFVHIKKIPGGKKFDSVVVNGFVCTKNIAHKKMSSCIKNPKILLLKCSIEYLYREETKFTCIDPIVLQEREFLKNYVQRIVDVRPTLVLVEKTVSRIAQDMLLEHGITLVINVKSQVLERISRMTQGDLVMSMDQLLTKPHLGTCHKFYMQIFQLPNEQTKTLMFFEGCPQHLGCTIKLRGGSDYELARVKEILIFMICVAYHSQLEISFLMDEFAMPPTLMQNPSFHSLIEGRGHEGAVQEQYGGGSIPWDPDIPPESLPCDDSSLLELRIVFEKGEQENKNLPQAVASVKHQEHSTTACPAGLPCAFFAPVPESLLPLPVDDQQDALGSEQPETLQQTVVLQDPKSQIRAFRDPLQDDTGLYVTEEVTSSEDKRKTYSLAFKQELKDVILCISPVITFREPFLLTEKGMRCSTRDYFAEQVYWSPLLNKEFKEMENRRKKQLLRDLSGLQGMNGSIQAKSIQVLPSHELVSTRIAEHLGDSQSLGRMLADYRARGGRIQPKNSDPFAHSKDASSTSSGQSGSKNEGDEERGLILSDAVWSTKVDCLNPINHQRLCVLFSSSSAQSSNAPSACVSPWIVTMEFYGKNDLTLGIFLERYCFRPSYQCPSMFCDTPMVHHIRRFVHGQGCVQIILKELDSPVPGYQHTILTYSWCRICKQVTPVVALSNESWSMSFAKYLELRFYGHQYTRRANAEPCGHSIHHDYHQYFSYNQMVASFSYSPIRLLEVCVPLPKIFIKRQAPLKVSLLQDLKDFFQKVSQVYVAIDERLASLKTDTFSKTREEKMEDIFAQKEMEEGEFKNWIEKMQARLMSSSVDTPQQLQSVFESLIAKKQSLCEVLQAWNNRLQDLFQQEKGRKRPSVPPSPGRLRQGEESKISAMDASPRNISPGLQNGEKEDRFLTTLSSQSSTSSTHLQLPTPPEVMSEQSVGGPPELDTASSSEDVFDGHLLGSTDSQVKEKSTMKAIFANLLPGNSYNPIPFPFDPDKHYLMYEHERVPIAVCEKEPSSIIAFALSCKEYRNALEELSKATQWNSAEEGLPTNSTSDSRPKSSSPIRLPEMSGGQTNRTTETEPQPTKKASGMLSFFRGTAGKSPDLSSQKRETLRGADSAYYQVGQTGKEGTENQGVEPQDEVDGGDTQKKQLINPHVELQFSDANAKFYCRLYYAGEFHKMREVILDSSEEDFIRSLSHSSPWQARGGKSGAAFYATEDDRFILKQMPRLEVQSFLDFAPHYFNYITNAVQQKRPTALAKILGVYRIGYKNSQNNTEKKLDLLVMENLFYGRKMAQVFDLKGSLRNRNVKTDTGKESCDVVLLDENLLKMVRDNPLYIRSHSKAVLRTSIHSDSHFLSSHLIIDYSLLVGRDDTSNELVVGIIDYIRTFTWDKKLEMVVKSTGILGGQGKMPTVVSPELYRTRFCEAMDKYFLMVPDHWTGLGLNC
Background: Bioluminescence resonance energy transfer reports proximity on the nanometre scale.

Assay [2] deals with full-length human PIKFYVE (GST-PIKFYVE) (Homo sapiens (Human), UniProt Q9Y2I7, L932S/Q1183K/Q995L/S1033A/S696N/T998S). Briefly: PIKfyve biochemical assay (ADP-Glo Kinase assay, Carna Biosciences). An excerpt:
PIKfyve Biochemical Assay. The biochemical PIKFyve inhibition assays were run by Carna Biosciences according to proprietary methodology based on the Promega ADP-Glo™ Kinase assay. A full-length human PIKFYVE [1-2098(end) amino acids and S696N, L932S, Q995L, T998S, S1033A and Q1183K of the protein having the sequence set forth in NCBI Reference Sequence No. NP_055855.2] was expressed as N-terminal GST-fusion protein (265 kDa) using baculovirus expression system. GST-PIKFYVE was purified by using glutathione sepharose chromatography and used in an ADP-Glo™ Kinase assay (Promega). Reactions were set up by adding the test compound solution, substrate solution, ATP solution and kinase solution, each at 4× final concentrations. Reactions were prepared with assay buffer (50 mM MOPS, 1 mM DTT, pH7.2), mixed, and incubated in black 384 well polystyrene plates for 1 hour at room temperature. ADP-Glo™ reagent was then added for 40 minutes, followed by kinase detection reagent for an additional 40 minutes. The kinase activity was evaluated by detecting relative light units on a luminescence plate reader. Samples were run in duplicate from 10 μM to 3 nM. […] IC50 values were calculated from concentration vs % inhibition curves by fitting to a four-parameter logistic curve.
The biochemical PIKFyve inhibition assays were run by Carna Biosciences according to proprietary methodology based on the Promega ADP-Glo™ Kinase assay. A full-length human PIKFYVE [1-2098(end) amino acids and S696N, L932S, Q995L, T998S, S1033A and Q1183K of accession number NP_055855.2] was expressed as N-terminal GST-fusion protein (265 kDa) using baculovirus expression system. GST-PIKFYVE was purified by using glutathione sepharose chromatography and used in an ADP-Glo™ Kinase assay (Promega).
Reactions were set up by adding the test compound solution, substrate solution, ATP solution and kinase solution, each at 4× final concentrations. Reactions were prepared with assay buffer (50 mM MOPS, 1 mM DTT, pH7.2), mixed, and incubated in black 384 well polystyrene plates for 1 hour at room temperature. ADP-Glo™ reagent was then added for 40 minutes, followed by kinase detection reagent for an additional 40 minutes. The kinase activity was evaluated by detecting relative light units on a luminescence plate reader. Samples were run in duplicate from 10 uM to 3 nM. […] IC50 values were calculated from concentration vs % inhibition curves by fitting to a four-parameter logistic curve.
A general note: In ADP-Glo the light output rises with the ADP produced.

Assay [3] deals with PIKFYVE TDP-43 yeast strain. Briefly: Propidium iodide viability assay in PIKFYVE TDP-43 yeast strain. The format is cell-based. As to conditions: Saccharomyces cerevisiae; reduction in PI-positive cells, 24 hours, up to 15 μM. From the text:
Generation of TDP-43 yeast model expressing human PIKfyve. Human PIKFYVE (“entry clone”) was cloned into pAG416GPDccdB (“destination vector”) according to standard Gateway cloning protocols (Invitrogen, Life Technologies). The resulting pAG416GPD-PIKFYVE plasmids were amplified in E. coli and plasmid identity confirmed by restriction digest and Sanger sequencing. Lithium acetate/polyethylene glycol-based transformation was used to introduce the above PIKFYVE plasmid into a BY4741 yeast strain auxotrophic for the ura3 gene and deleted for two transcription factors that regulate the xenobiotic efflux pumps, a major efflux pump, and FAB1, the yeast ortholog of PIKFYVE (MATa, snq2::KILeu2; pdr3::Klura3;pdrl::NATMX; fab1::G418^R, his3;leu2;ura3;met15;LYS2+) (FIG. 2). Transformed yeast were plated on solid agar plates with complete synthetic media lacking uracil (CSM-ura) and containing 2% glucose. Individual colonies harboring the control or PIKFYVE TDP-43 plasmids were recovered. A plasmid containing wild-type TDP-43 under the transcriptional control of the GAL1 promoter and containing the hygromycin-resistance gene as a selectable marker was transformed into the fab1::G418^R pAG416GPD-PIKFYVE yeast strain (FIG. 1). Transformed yeast were plated on CSM-ura containing 2% glucose and 200 μg/mL […] after overnight recovery in media lacking antibiotic. Multiple independent isolates were further evaluated for cytotoxicity and TDP-43 expression levels.
Viability Assay. A control yeast strain with the wild-type yeast FAB1 gene and TDP-43 (“FAB1 TDP-43”, carries empty pAG416 plasmid), and the “PIKFYVE TDP-43” yeast strain, were assessed for toxicity using a propidium iodide viability assay. Both yeast strains were transferred from solid CSM-ura/2% glucose agar plates into 3 mL of liquid CSM-ura/2% glucose media for 6-8 hours at 30° C. with aeration. Yeast cultures were then diluted to an optical density at 600 nm wavelength (OD600) of 0.005 in 3 mL of CSM-ura/2% raffinose and grown overnight at 30° C. with aeration to an OD600 of 0.3-0.8. Log-phase overnight cultures were diluted to OD600 of 0.005 in CSM-ura containing either 2% raffinose or galactose and 150 μL dispensed into each well of a flat bottom 96-well plates. Compounds formulated in 100% dimethyl sulfoxide (DMSO) were serially diluted in DMSO and 1.5 μL diluted compound transferred to the 96-well plates using a multichannel pipet. Wells containing DMSO alone were also evaluated as controls for compound effects. Tested concentrations ranged from 15 μM to 0.11 μM. Cultures were immediately mixed to ensure compound distribution and covered plates incubated at 30° C. for 24 hours in a stationary, humified incubator.
Upon the completion of incubation, cultures were assayed for viability using propidium iodide (PI) to stain for dead/dying cells. A working solution of PI was made where, for each plate, 1 μL of 10 mM PI was added to 10 mL of CSM-ura (raffinose or galactose). The final PI solution (50 μL/well) was dispensed into each well of a new round bottom 96-well plate. The overnight 96-well assay plate was then mixed with a multichannel pipet and 50 μL transferred to the PI-containing plate. This plate was then incubated for 30 minutes at 30° C. in the dark. A benchtop flow cytometer (Miltenyi MACSquant) was then used to assess red fluorescence (B2 channel), forward scatter, and side scatter (with following settings: gentle mix, high flow rate, fast measurement, 10,000 events). Intensity histograms were then gated for “PI-positive” or “PI-negative” using the raffinose and galactose cultures treated with DMSO as controls. The DMSO controls for raffinose or galactose-containing cultures were used to determine the window of increased cell death and this difference set to 100. All compounds were similarly gated and then compared to this maximal window to establish the percent reduction in PI-positive cells.

The mark [4] stands for this setting: ADP-Glo, full-length human PIKFYVE, read-out: hPIKfyve IC50.

pIC50: −log10 of the molar value. Where two headings read alike, the source gives them in different places. Some results are limits rather than exact numbers.

This passage reports IC50 results from patent US20240208964A1, “PYRIDOPYRIMIDINES AND METHODS OF THEIR USE” (PYRIDOPYRIMIDINES AND METHODS OF THEIR USE, priority 2020, published 2024).

full-length human PIKFYVE (GST-PIKFYVE), sequence (Q9Y2I7 whole entry S696N/L932S/Q995L/T998S/S1033A/Q1183K, the tested form may be a part): as the sequence (Q9Y2I7 whole entry, the tested form may be a part) above, with S696N, L932S, Q995L, T998S, S1033A, Q1183K counted along it

One may read the pIC50 as the negative decadic logarithm of the IC50, by convention in mol/L. `Cc1cccc(/C=N/Nc2nc(N3CCOCC3)c3ncc(Cc4cccnc4)cc3n2)c1` [compound 80]: the pIC50 in assay [1] and in assay [2] (setting [4]) was 7.00 to 8.00 each time.

`c1ccc(-c2cccc(-c3cc(N4CCOCC4)n4nc(-c5ccncc5)cc4n3)n2)cc1` had a pIC50 in assay [3] of 6.64. `C1=C(c2cnc3c(N4CCOCC4)nc(-n4ccc(-c5ccccc5)n4)nc3c2)CCOC1` [compound 21, 4-(7-(3,6-dihydro-2H-pyran-4-yl)-2-(3-phenyl-1H-pyrazol-1-yl)pyrido[3,2-d]pyrimidin-4-yl)morpholine]: the pIC50 in assay [1] and in assay [2] (setting [4]) was 7.00 to 8.00 each time. `Cc1cccc(-c2cc(O)n(-c3nc(N4CCOCC4)c4ncc(Cc5cccnc5)cc4n3)n2)c1` [compound 81]: the pIC50 is 6.00 to 7.00 in assay [1] and 7.00 to 8.00 in assay [2] (setting [4]). `Cc1cccc(/C=N/Nc2nc(N3CCOCC3)c3nc(-c4ccncc4)n(C)c3n2)c1` [drawing 308] showed a pIC50 in assay [3] of 5.33. Still for that read-out and setting: as for `Oc1cc(-c2ccccc2)nn1-c1cc(N2CCOCC2)n2nc(-c3ccncc3)nc2n1`, the figure is 6.16. For `c1ccc(-c2ccn(-c3nc(N4CCOCC4)c4ncc(C5CCCO5)cc4n3)n2)cc1` (stereo not shown) [compound 22, 4-(2-(3-phenyl-1H-pyrazol-1-yl)-7-(tetrahydrofuran-2-yl)pyrido[3,2-d]pyrimidin-4-yl)morpholine], the pIC50 is 6.00 to 7.00 in assay [1] and 7.00 to 8.00 in assay [2] (setting [4]). For the molecule `c1ccc(-c2ccnc(-c3cc(N4CCOCC4)nc(OCc4ccncc4)n3)n2)cc1`, the pIC50 in assay [3] was 5.84. In turn, `Cc1cccc(/C=N/Nc2nc(N3CCOCC3)c3ncccc3n2)c1` [drawing 311] showed a pIC50 in assay [3] of 5.09. Molecule `c1ccc(N2CCc3c(OCc4cccnc4)nc(N4CCOCC4)nc32)cc1` gave a pIC50 in assay [3] of 5.57.

In the case of `Oc1cc(C2CCOCC2)nn1-c1cc(N2CCOCC2)n2nc(-c3ccncc3)cc2n1`, in assay [3], the pIC50 was 5.04. For `c1cnc2c(N3CCOCC3)nc(-n3ccc(C4CCCNC4)n3)nc2c1` (stereo not shown) [compound 43, 4-(2-(3-(piperidin-3-yl)-1H-pyrazol-1-yl)pyrido[3,2-d]pyrimidin-4-yl)morpholine], in assay [2] (setting [4]), the pIC50 was 5.00 to 6.00. Still for that read-out and setting: as for `c1ccc(-c2nccc(-c3nc(N4CCOCC4)c4ncc(Cc5cccnc5)cc4n3)n2)cc1` [compound 85], the figure is 6.00 to 7.00; as for `Fc1cccc(-c2nccc(-c3nc(N4CCOCC4)c4ncc(Cc5cccnc5)cc4n3)n2)c1` [compound 86], 6.00 to 7.00. As for `c1ccc(Oc2nc(N3CCOCC3)c3ncc(Cc4cccnc4)cc3n2)cc1` [compound 84], in assay [2] (setting [4]), the pIC50 was 5.00 to 6.00.

Turning to `CC(C)c1ccn(-c2nc(N3CCOCC3)c3ncccc3n2)n1` [compound 9, 4-(2-(3-isopropyl-1H-pyrazol-1-yl)pyrido[3,2-d]pyrimidin-4-yl)morpholine], the negative-log IC50 (pIC50) in assay [2] (setting [4]) is 5.00 to 6.00. Regarding `CCn1c(-c2ccccc2)nn(-c2nc(N3CCOCC3)c3ncccc3n2)c1=O` [compound 31, 4-ethyl-2-(4-morpholinopyrido[3,2-d]pyrimidin-2-yl)-5-phenyl-1,2,4-triazol-3-one], the pIC50 in assay [2] (setting [4]) is 5.00 to 6.00. On to `Fc1cccc(-c2ccnn2-c2nc(N3CCOCC3)c3ncccc3n2)c1`, for which the pIC50 in assay [3] was 5.24; in assay [2] (values plotted in FIG. 7, read-out: PIKFYVE Biochemistry (IC50)), under 5.00. Consider `Cc1cccc(/C=N/Nc2cc(N3CCOCC3)nc(OCCc3ccc(CN)cc3)n2)c1`, for which the pIC50 in assay [3] is 5.95. On to `CC(C)(C)OC(=O)N1CCC=C(c2ccn(-c3nc(N4CCOCC4)c4ncccc4n3)n2)C1` [compound 4, tert-butyl 3-(1-(4-morpholinopyrido[3,2-d]pyrimidin-2-yl)-1H-pyrazol-3-yl)-5,6-dihydropyridine-1(2H)-carboxylate], for which the pIC50 in assay [2] (setting [4]) was 5.00 to 6.00. As for `Cc1cccc(CCNc2nc(N3CCOCC3)c3ncccc3n2)c1` [compound 23, N-(3-methylphenethyl)-4-morpholinopyrido[3,2-d]pyrimidin-2-amine], the pIC50 in assay [2] (setting [4]) was 6.00 to 7.00. With `c1cnc2c(N3CCOCC3)nc(-n3ccc(C4CCNCC4)n3)nc2c1` [compound 42, 4-[2-[3-(4-piperidyl)pyrazol-1-yl]pyrido[3,2-d]pyrimidin-4-yl]morpholine], the pIC50 in assay [2] (setting [4]) was 5.00 to 6.00.

Consider `c1ccc(-c2ccn(-c3nc(N4CCOCC4)c4ccncc4n3)n2)cc1` [compound 13], for which the pIC50 in assay [2] (setting [4]) is 6.00 to 7.00. The same measure, in the same setting: the figure for `CN1CCCC(c2ccn(-c3nc(N4CCOCC4)c4ncccc4n3)n2)C1` (stereo not shown) [compound 44, 4-(2-(3-(1-methylpiperidin-3-yl)-1H-pyrazol-1-yl)pyrido[3,2-d]pyrimidin-4-yl)morpholine] is 5.00 to 6.00; for `c1cnc2c(N3CCOCC3)nc(-c3ccnc(C4CCOCC4)n3)nc2c1` [compound 35, 4-[2-(2-tetrahydropyran-4-ylpyrimidin-4-yl)pyrido[3,2-d]pyrimidin-4-yl]morpholine] it is 5.00 to 6.00; for `c1ccc(Nc2nc(N3CCOCC3)c3ncc(-c4ccco4)cc3n2)cc1` [compound 15, 7-(furan-2-yl)-4-morpholino-N-phenylpyrido[3,2-d]pyrimidin-2-amine] it is 6.00 to 7.00.
